Data: EP2556062B1, “AMIDE DERIVATIVES OF AVENALUMIC ACID, PROCESS FOR PREPARING SAME AND COSMETIC COMPOSITIONS CONTAINING SAME” (Produits Chimiques Auxiliaires et de Synthese, priority 2010, dated 2011)

Key:
[1] = DPPH radical scavenging test (free-radical trapping); type: biochemical; conditions: DPPH 0,5mM, 37°C, 30 minutes, absorbance at 517 nm; for % inhibition (C=25µM): compound 25µM; for % inhibition (C=80µM): compound 80µM; for % inhibition (C=): compound
Experimental: Cette étude mesure l'activité antiradicalaire d'un composé par capture du radical DPPH. Ce test est largement utilisé pour étudier la capacité d'un composé à donner un hydrogène.
L'activité se traduit par une décoloration du DPPH (violet). L'absorbance (densité optique DO) a été mesurée à 517 nm au bout de trente minutes sur un spectrophotomètre UV-visible thermostaté à 37°C. Le résultat est exprimé en pourcentage d'inhibition déterminé par la formule : [formula]
Cette activité a été comparée à celle des produits de référence vitamine E, acide férulique et vinylogue de l'acide férulique [dérivé (17)].

[2] = Auto-oxidation by the ferric thiocyanate (FTC) method: AAPH-induced lipid peroxidation of linoleic acid; type: biochemical; conditions: 25 micromoles; absorbance at 500nm versus time over five hours; activity not superior to that of acide férulique
From the text: Cette méthode met en évidence la capacité de capter le radical peroxyle par le dérivé à tester. La méthode est basée sur une peroxydation lipidique de l'acide linoléique, émulsionné par le Tween 20®.
Cette peroxydation est réalisée par action d'un initiateur de radicaux libres, le dihydrochlorhydrate de 2,2'-azobis(2-amidino)propane (AAPH). Le radical peroxyle formé réagit avec le dérivé à tester et conduit à la formation d'un hydroperoxyde et d'un radical alkoxyle ArO˙. Ce dernier réagit avec le radical peroxyle et permet la formation de produits non radicalaires.
Par ailleurs, les radicaux peroxyle continuent d'oxyder le substrat (l'acide linoléique) pour former également un hydroperoxyde. Cet hydroperoxyde oxyde le fer ferreux présent in situ pour conduire à la formation de fer ferrique Fe^3+ qui se complexe à l'anion thiocyanate.
Le complexe rouge de thiocyanate ferrique formé absorbe à 500nm.
Le degré d'oxydation est quantifié par l'absorbance mesurée. L'activité antioxydante du dérivé à tester est donc la capacité à retarder la peroxydation lipidique. Plus la durée pour atteindre le maximum d'absorbance est longue, plus l'antioxydant est puissant.
Cette étude est réalisée sur une période de cinq heures avec un intervalle de temps d'une heure. Le résultat est exprimé par l'absorbance en fonction du temps. La concentration des molécules dans le milieu est de 25 micromoles.

Compound: COc1cc(/C=C/C(=O)O)ccc1O [Acide férulique, reference compound]
- % inhibition (C=25µM) [1]: 50%
- % inhibition (C=80µM) [1]: 78%
- % inhibition (C=) [1]: 61%

Compound: Cc1c(C)c2c(c(C)c1O)CC[C@@](C)(CCC[C@H](C)CCC[C@H](C)CCCC(C)C)O2 [Vit.E, vitamine E, reference compound]
- % inhibition (C=25µM) [1]: 41%
- % inhibition (C=80µM) [1]: 92%
- % inhibition (C=) [1]: 86%

Compound: COC(=O)c1scc(C)c1NC(=O)/C=C/c1ccc(O)c(OC)c1 [compound 3, 3-{[(2E)-3-(4-hydroxy-3-méthoxyphényl)prop-2-ènoyl]amino}-4-méthylthiophène-2-carboxylatede méthyle]
- % inhibition (C=25µM) [1]: 45%
- % inhibition (C=80µM) [1]: 72%
- % inhibition (C=) [1]: 48%
- activité antioxydante [2]: ont une activité antioxydante

Compound: COc1cc(/C=C/C(=O)Nc2c(C)csc2C(=O)O)ccc1O [compound 4, Acide 3-{[(2E)-3-(4-hydroxy-3-méthoxyphényl)prop-2-ènoyl]amino}-4-méthylthiophène-2-carboxylique]
- % inhibition (C=25µM) [1]: 41%
- % inhibition (C=80µM) [1]: 50%
- % inhibition (C=) [1]: 31%
- activité antioxydante [2]: ont une activité antioxydante

Compound: COc1cc(/C=C/C=C/C(=O)O)ccc1O [compound 17, Acide (2E,4E)-5-[4-hydroxy-3-méthoxyphényl]penta-2,4-diénoique, reference compound]
- % inhibition (C=25µM) [1]: 62%
- % inhibition (C=80µM) [1]: 81%
- % inhibition (C=) [1]: 65%

Compound: COC(=O)c1scc(C)c1NC(=O)/C=C/C=C/c1ccc(O)c(OC)c1 [compound 21, 3-{[(2E,4E)-5-(4-hydroxy-3-méthoxyphényl)penta-2,4-diènoyl]amino}-4-méthylthiophène-2-carboxylatede méthyle]
- % inhibition (C=25µM) [1]: 68%
- % inhibition (C=80µM) [1]: 93%
- % inhibition (C=) [1]: 74%
- activité antioxydante [2]: ont une activité antioxydante

Compound: COc1cc(/C=C/C=C/C(=O)Nc2c(C)csc2C(=O)O)ccc1O [compound 22, Acide 3-{[(2E,4E)-5-(4-hydroxy-3-méthoxyphényl)penta-2,4-diènoyl]amino}-4-méthylthiophène-2-carboxylique]
- % inhibition (C=25µM) [1]: 50%
- % inhibition (C=80µM) [1]: 73%
- % inhibition (C=) [1]: 54%
- activité antioxydante [2]: ont une activité antioxydante
